From US20250154154A1 (Relay Binney Street, 2nd Floor, priority 2020, published 2025)

Molecular target: SRC (Homo sapiens, UniProt P12931)
Assay: SRC Biochemical Assay Protocol (microfluidic mobility shift assay, FLPeptide4 substrate)
Method: SRC Biochemical Assay Protocol
Src biochemical kinase activity was measured using a surrogate fluorescent peptide substrate [FLPeptide4; 5-FAM-EGIYGVLFKKK-CONH2 (PerkinElmer Cat. No. 760348)] with a microfluidic mobility shift assay. Reactions were performed in 384-well flat bottom polystyrene microplates (Corning Cat. No. 3570) at a final volume of 20 μL in 50 mM HEPES pH 7.4, 1 mM EGTA, 10 mM MgCl2, 0.01% Brij-35, 2 mM DTT, 0.05% BSA, 1% DMSO. Inhibition experiments were performed with compounds of the invention varying from 0.0017-100 μM with 0.26 nM SRC, 1.5 μM FLPeptide4, and 50 μM ATP. Specifically, 15 μl 1.3× mixtures of SRC+FLPeptide4+compounds were preincubated for 30 minutes at room temperature followed by addition of 5 μL 4×ATP. Reactions were carried out for 90 minutes then quenched with 40 μl 500 mM EDTA. Phosphorylated peptide product was measured with a mobility shift assay using a LabChip® EZ Reader system (PerkinElmer Cat. No. 122919). Inhibition ratios were calculated relative to neutral controls and IC50 values were obtained from dose response data fitted to a 4-parameter logistic model.

Compound	IC50
CC(C(=O)O)N1CCC(C#Cc2c(-c3ccc(Oc4ccccc4)cc3)c3c(N)ncnc3n2C(C)C)CC1 (stereo not drawn) [II-149, 2-(4-((4-amino-7-isopropyl-5-(4-phenoxyphenyl)-7H-pyrrolo[2,3-d]pyrimidin-6-yl)ethynyl)piperidin-1-yl)propanoic acid]	≤ 10 nM
1-(4-(3-((4-amino- 7-isopropyl-5-(3- methoxy-4-(6- methylpyridin-2- yloxy)phenyl)-7H- pyrrolo[2,3- d]pyrimidin-6- yl)ethynyl)azetidin- 1-yl)piperidin-1- yl)prop-2-en-1-one [II-306]	10 to 1000 nM
C=CC(=O)N1CCC(N2CC(C#Cc3c(-c4ccc(Oc5cccc(C)n5)c(OC)c4)c4c(N)ncnc4n3CC)C2)CC1 [II-121]	10 to 1000 nM
CC(Cl)C(=O)N1CCC(C#Cc2c(-c3ccc(Oc4ccccc4)cc3)c3c(N)ncnc3n2C(C)C)CC1 (stereo not drawn) [Example I-39]	10 to 1000 nM
C=CC(=O)N1CCC(C#Cc2c(-c3ccc(Oc4ccccc4C#N)cc3)c3c(N)ncnc3n2C(C)C)CC1 [Example I-31]	10 to 1000 nM
CCC(=O)N1CCC(C#Cc2c(-c3ccc(Oc4ccccc4)cc3)c3c(N)ncnc3n2C2CCOC2)CC1 (stereo not drawn) [II-156, 1-(4-((4-amino-5-(4-phenoxyphenyl)-7-(tetrahydrofuran-3-yl)-7H-pyrrolo[2,3-d]pyrimidin-6-yl)ethynyl)piperidin-1-yl)propan-1-one]	10 to 1000 nM
CC(C)n1c(C#CC2CCN(C)CC2)c(-c2ccc(Oc3ccccc3)cc2)c2c(N)ncnc21 [II-141, 7-isopropyl-6-((1-methylpiperidin-4-yl)ethynyl)-5-(4-phenoxyphenyl)-7H-pyrrolo[2,3-d]pyrimidin-4-amine]	≤ 10 nM
C=CC(=O)N1CCC(C#Cc2c(-c3ccc(Nc4ccccn4)cc3)c3c(N)ncnc3n2C(C)C)CC1 [Example I-9]	10 to 1000 nM
N-[(1r,4r)-4-[2-[4- amino-7-(2- hydroxyethyl)-5- [3-methoxy-4-[(6- methylpyridin-2- yl)oxy]phenyl]- 7H-pyrrolo[2,3- d]pyrimidin-6- yllethynyl] cyclohexyl] prop-2- enamide [II-311]	≤ 10 nM
C=CS(=O)(=O)N1CC(N2CCC(C#Cc3c(-c4ccc(Oc5ccccc5)cc4)c4c(N)ncnc4n3C(C)C)CC2)C1 [Example I-53]	≤ 10 nM
Nc1ncnc2c1c(-c1ccc(Oc3ccccc3)cc1)c(C#CC1CCNCC1)n2C1CCOC1 (stereo not drawn) [II-155, 5-(4-phenoxyphenyl)-6-(piperidin-4-ylethynyl)-7-(tetrahydrofuran-3-yl)-7H-pyrrolo[2,3-d]pyrimidin-4-amine]	≤ 10 nM
C=CC(=O)N1CCC(C#Cc2c(-c3ccc(Oc4ccccc4)cc3)c3c(N)ncnc3n2[C@H](C)CO)CC1 (single isomer, unassigned) [Example I-24]	10 to 1000 nM
CC(C)n1c(C#CC2CCNC2)c(-c2ccc(Oc3ccccc3)cc2)c2c(N)ncnc21 (stereo not drawn) [II-157, 7-isopropyl-5-(4-phenoxyphenyl)-6-(pyrrolidin-3-ylethynyl)-7H-pyrrolo[2,3-d]pyrimidin-4-amine]	≤ 10 nM
CC(C(N)=O)N1CCC(C#Cc2c(-c3ccc(Oc4ccccc4)cc3)c3c(N)ncnc3n2C(C)C)CC1 (stereo not drawn) [II-150, 2-(4-((4-amino-7-isopropyl-5-(4-phenoxyphenyl)-7H-pyrrolo[2,3-d]pyrimidin-6-yl)ethynyl)piperidin-1-yl)propanamide]	10 to 1000 nM
C=CS(=O)(=O)N1CC(C#Cc2c(-c3ccc(Oc4ccccc4)cc3)c3c(N)ncnc3n2C(C)C)C1 [Example I-17]	≤ 10 nM
Cn1c(C#CC2CCNCC2)c(-c2ccc(Oc3ccccc3)cc2)c2c(N)ncnc21 [II-159, 7-methyl-5-(4-phenoxyphenyl)-6-(piperidin-4-ylethynyl)-7H-pyrrolo[2,3-d]pyrimidin-4-amine]	10 to 1000 nM
C=CC(=O)N1CCC(C#Cc2c(-c3ccc(Oc4ncccn4)cc3)c3c(N)ncnc3n2C(C)C)CC1 [Example I-15]	10 to 1000 nM
COC(=O)C(C)N1CCC(C#Cc2c(-c3ccc(Oc4ccccc4)cc3)c3c(N)ncnc3n2C(C)C)CC1 (stereo not drawn) [II-148, methyl 2-(4-((4-amino-7-isopropyl-5-(4-phenoxyphenyl)-7H-pyrrolo[2,3-d]pyrimidin-6-yl)ethynyl)piperidin-1-yl)propanoate]	10 to 1000 nM
C=CS(=O)(=O)N1CCC(C#Cc2c(-c3ccc(Oc4ccccc4)cc3)c3c(N)ncnc3n2C(C)C)CC1 [Example I-37]	≤ 10 nM
C=CC(=O)N1CC(C#Cc2c(-c3ccc(Oc4ccccc4)cc3)c3c(N)ncnc3n2C(C)C)C1 [Example I-3]	≤ 10 nM
C=CC(=O)N1CCC(C#Cc2c(-c3ccc(Oc4cccc(F)c4)cc3)c3c(N)ncnc3n2C(C)C)CC1 [Example I-28]	10 to 1000 nM

The remaining lines, values ahead:

IC50	Compound
10 to 1000 nM	C=CC(=O)N1CCC(N2CC(C#Cc3c(-c4ccc(Oc5ccccn5)c(OC)c4)c4c(N)ncnc4n3C)C2)C(S(C)(=O)=O)C1 (stereo not drawn) [III-87]
1000 to 10000 nM	C=CC(=O)N1CCC(O)(C#Cc2c(-c3ccc(Oc4ccccc4)c(C#N)c3)c3c(N)ncnc3n2C)CC1 [III-54]
10 to 1000 nM	CC(C)n1c(C#CC2CCOCC2)c(-c2ccc(Oc3ccccc3)cc2)c2c(N)ncnc21 [III-8]
≤ 10 nM	CC(C)n1c(C#CC2CCN(C(=O)/C=C/CN(C)C)C2)c(-c2ccc(Oc3ccccc3)cc2)c2c(N)ncnc21 (stereo not drawn) [III-12]
10 to 1000 nM	C#Cc1c(-c2ccc(Oc3ccccc3)cc2)c2c(N)ncnc2n1C(C)C [III-6]
≤ 10 nM	C=CC(=O)N1CCC(N2CC(C#Cc3c(-c4ccc(Oc5ccccc5)cc4)c4c(N)ncnc4n3[C@@H]3CCOC3)C2)CC1 [III-55]
10 to 1000 nM	C=CC(=O)N1CCC(N2CC(C#Cc3c(-c4ccc(Oc5ccccc5)cc4)c4c(N)ncnc4n3C(C)CO)C2)CC1 (stereo not drawn) [III-60]
10 to 1000 nM	CN(C)C/C=C/C(=O)N1CCC(C#Cc2c(-c3ccc(Oc4ccccc4)cc3)c3c(N)ncnc3n2C2CCOC2)C1 (stereo not drawn) [III-18]
10 to 1000 nM	C=CC(=O)N1CCC(N2CC(C#Cc3c(-c4ccc(Oc5ccccc5)cc4)c4c(N)ncnc4n3C)C2)C(C)C1 (stereo not drawn) [III-49]
10 to 1000 nM	C=CC(=O)N1CCC(N2CC(C#Cc3c(-c4ccc(Oc5ccccc5)cc4)c4c(N)ncnc4n3C)C2)C[C@H]1C (stereo partly drawn) [III-46]
10 to 1000 nM	C=CC(=O)N1CC[C@@H](N2CC(C#Cc3c(-c4ccc(Oc5ccccc5)cc4)c4c(N)ncnc4n3C)C2)[C@H](C)C1 [III-66]
10 to 1000 nM	C=CC(=O)N1CCC(N2CCC(C#Cc3c(-c4ccc(Oc5ccccc5)cc4)c4c(N)ncnc4n3C)C2)CC1 (stereo not drawn) [III-73]
10 to 1000 nM	CN(C)C/C=C/C(=O)N1CC2(C1)CC(O)(C#Cc1c(-c3ccc(Oc4ccccc4)cc3)c3c(N)ncnc3n1C)C2 [III-26]
10 to 1000 nM	C=CC(=O)N[C@H]1CC[C@H](C#Cc2c(-c3ccc(Oc4cccc(C)n4)c(OC)c3)c3c(N)ncnc3n2C)CC1 [III-4]
10 to 1000 nM	CC(CO)n1c(C#CC2(O)CCN(C(=O)/C=C/CN(C)C)CC2)c(-c2ccc(Oc3ccccc3)cc2)c2c(N)ncnc21 (stereo not drawn) [III-27]
10 to 1000 nM	C=CC(=O)N1CCC(O)(C#Cc2c(-c3ccc(Oc4ccccc4)cc3)c3c(N)ncnc3n2C)C[C@H]1C (stereo partly drawn) [III-48]
10 to 1000 nM	CC(CO)n1c(C#CC2CCN(C(=O)/C=C/CN(C)C)CC2)c(-c2ccc(Oc3ccccc3)cc2)c2c(N)ncnc21 (stereo not drawn) [III-31]

IC50	Compound
10 to 1000 nM	C=CC(=O)N1CCC(N2CC(C#Cc3c(-c4ccc(Oc5cccc(C)n5)c(OC)c4)c4c(N)ncnc4n3C3CCOC3)C2)CC1 (stereo not drawn) [III-91]
10 to 1000 nM	Cn1c(C#CC2CN(C(=O)/C=C/CN3CCOCC3)C2)c(-c2ccc(Oc3ccccc3)cc2)c2c(N)ncnc21 [III-61]
10 to 1000 nM	C=C(C)C(=O)N1CCC(C#Cc2c(-c3ccc(Oc4ccccc4)cc3)c3c(N)ncnc3n2[C@H]2CCOC2)CC1 [III-37]
10 to 1000 nM	C=CC(=O)N1CCC(C#Cc2c(-c3ccc(Oc4ccccc4)cc3)c3c(N)ncnc3n2C)C1 (stereo not drawn) [III-11]
10 to 1000 nM	C=CC(=O)N1CCCC(N2CC(C#Cc3c(-c4ccc(Oc5ccccc5)cc4)c4c(N)ncnc4n3C)C2)CC1 (stereo not drawn) [III-56]
≤ 10 nM	C=CC(=O)N[C@@H](C)C(=O)N1CCC(C#Cc2c(-c3ccc(Oc4ccccc4)cc3)c3c(N)ncnc3n2C)CC1 [III-45]
10 to 1000 nM	CN(C)C/C=C/C(=O)N1CCC(C#Cc2c(-c3ccc(Oc4ccccc4)cc3)c3c(N)ncnc3n2C)C1 (stereo not drawn) [III-22]
10 to 1000 nM	C=CC(=O)N1CCC(N2CC(C#Cc3c(-c4ccc(Oc5ccccc5)cc4F)c4c(N)ncnc4n3C)C2)CC1 [III-82]
≤ 10 nM	CC(C)n1c(C#CC2(O)CCN(C(=O)/C=C/CN(C)C)CC2)c(-c2ccc(Oc3ccccc3)cc2)c2c(N)ncnc21 [III-24]
≤ 10 nM	C=CC(=O)N[C@H](C)C(=O)N1CCC(C#Cc2c(-c3ccc(Oc4ccccc4)cc3)c3c(N)ncnc3n2C2CCOC2)CC1 (stereo partly drawn) [III-76]
10 to 1000 nM	C=CC(=O)N1CCC(C#Cc2c(-c3ccc(Oc4ccccc4)cc3)c3c(N)ncnc3n2C2CCOC2)C1 (stereo not drawn) [III-21]
10 to 1000 nM	C=CC(=O)N1CCC(N2CC(C#Cc3c(-c4ccc(Oc5ccccc5)cc4)c4c(N)ncnc4n3[C@H]3C[C@H](O)C3)C2)CC1 [III-68]
1000 to 10000 nM	C=CC(=O)NCC#Cc1c(-c2ccc(Oc3ncccn3)cc2)c2c(N)ncnc2n1C [III-95]
10 to 1000 nM	C=CC(=O)N1CCC(C#Cc2c(-c3ccc(Oc4ccccc4)cc3)c3c(N)ncnc3n2CCCCN(C)C)C1 (stereo not drawn) [III-20]
10 to 1000 nM	C=C(C)C(=O)N1CCC(N2CC(C#Cc3c(-c4ccc(Oc5ccccc5)cc4)c4c(N)ncnc4n3C)C2)CC1 [III-38]
10 to 1000 nM	C=CC(=O)N1CCC(O)(C#Cc2c(-c3ccc(Oc4ccccc4)c(F)c3)c3c(N)ncnc3n2C)CC1 [III-62]
